Experimental data published in US9862718B2, “Sodium salt of (2S, 5R)-6-benzyloxy-7-oxo-1,6-diaza-bicyclo [3.2.1] octane-2-carboxylic acid and its preparation” (WOCKHARDT LIMITED, priority 2013, dated 2018).

How the values were obtained:
Assay type in all cases: physicochemical
[1] = stability of the free acid on storage (attempts to prepare this compound); details: syrupy in nature
Source text: The compound of Formula (V) i.e. (2S,5R)-6-benzyloxy-7-oxo-1,6-diaza-bicyclo[3.2.1]octane-2-carboxylic acid is disclosed in International Patent Application No. PCT/FR01/02418. […] US Patent Publication No. 20100197928 discloses a procedure to prepare a diastereomeric mixture of (S)-5-benzyloxyamino-piperidin-2-carboxylic acid benzyl ester as an oxalate salt in 50:50 ratio.

[2] = stability study on storage at room temperature (purity by HPLC)
[3] = hygroscopicity of the isolated solid; details: isolated solid material, compared with the corresponding free acid
Experimental: (1) The compound of Formula (I) is isolable as a highly pure solid material (purity of about at least 98% as determined by HPLC) and is a non-hygroscopic material as compared with the corresponding free acid (compound of Formula (V), which is obtained as syrupy material).
The precipitated solid was filtered under suction and the wet cake was washed with chilled acetone (400 ml). The non-hygroscopic solid was dried under vacuum at 40° C. for 1 hour to provide off-white colored material (sodium salt of (2S,5R)-6-benzyloxy-7-oxo-1,6-diaza-bicyclo{3.2.1}-octane-2-carboxylic acid) in 135 gm (89%, calculation adjusted for 70% purity of free acid) quantity.

Row | SMILES | stability on storage [1] | purity as analyzed by HPLC, initial purity ([2]; stability study, room temperature, initial) [%] | stability on storage ([2]; storage at room temperature for three months) | purity as analyzed by HPLC, purity after three months ([2]; storage at room temperature, after three months) [%] | purity as analyzed by HPLC, purity after two moths ([2]; storage at room temperature, after two moths) [%] | hygroscopicity [3]
1 | O=C(O)[C@@H]1CC[C@@H]2CN1C(=O)N2OCc1ccccc1 [Formula (V), (2S,5R)-6-benzyloxy-7-oxo-1,6-diaza-bicyclo[3.2.1]octane-2-carboxylic acid] | unstable |  |  |  |  | 
2 | O=C([O-])[C@@H]1CC[C@@H]2CN1C(=O)N2OCc1ccccc1.[Na+] [Formula (I), sodium salt of (2S,5R)-6-benzyloxy-7-oxo-1,6-diaza-bicyclo[3.2.1]octane-2-carboxylic acid] |  | 99.75 | excellent stability | 99.66 | 99.69 | non-hygroscopic
